Test results: patent US20160082161A1, “DRUG-ELUTING MEDICAL DEVICES” (Ramot at Tel-Aviv University Ltd., priority 2008, published 2016)

Assay: In vitro drug release from drug-eluting composite fibers in PBS
Type: physicochemical
Settings: PBS pH 7.4, 37° C.; PDLGA porous coat
Method: The composite drug-eluting fibers were immersed in phosphate buffered saline (PBS) at 37° C. and pH 7.4 for 35 days (FTS) or 37 weeks (paclitaxel), in triplicates, in order to determine the release kinetics from the drug-loaded composite structures. Each test vial contained 2 fibers; each fiber was 5 cm long. The release studies were conducted in closed glass tubes containing 3 ml PBS medium, using a horizontal bath shaker operated at a constant rate of 130 rpm. The medium was removed completely at certain sampling time points, extracted from the aqueous medium as described herein and measured using HPLC. Fresh medium was then introduced. At the end of the experiment the fibers were immersed in methylene chloride and the residual amount of drug was measured.
The drug content of the medium samples was determined using Jasco High Performance Liquid Chromatography (HPLC) equipped with a UV 2075 plus detector and a quaternary gradient pump (PU 2089 plus). […] The paclitaxel content of the medium samples was determined using a reverse phase column (Zorbax ODS 5 μm, inner diameter 4.6 mm, length 150 mm), and kept at 25° C. […]
On the final day of the in vitro trial, residual FTS from composite drug-eluting fibers was measured as follows: the fibers were placed in 1 ml methylene chloride for 10 minutes and the coating shell was dissolved. […]

Compound	Drug release from porous coat structures (time scale)
CC(=O)O[C@H]1C(=O)[C@@]2(C)[C@H]([C@H](OC(=O)c3ccccc3)[C@]3(O)C[C@H](OC(=O)[C@H](O)[C@@H](NC(=O)c4ccccc4)c4ccccc4)C(C)=C1C3(C)C)[C@]1(OC(C)=O)CO[C@@H]1C[C@@H]2O [paclitaxel, Paclitaxel]	slower paclitaxel release within several months
CC(C)=CCCC(C)=CCCC(C)=CCSc1ccccc1C(=O)O (stereo in doubt) [FTS, 2-((2E,6E)-3,7,11-trimethyldodeca-2,6,10-trienylthio)benzoic acid]	relatively fast FTS release within several weeks
